# Assay results published in patent US8148367B2 (Takeda Pharmaceutical Company Limited, priority 2008, dated 2012).
# Like-named read-outs stand apart in the source and are kept apart here.
# Target: T1, Recombinant human renin (Homo sapiens, UniProt P00797)
# T1 construct: isolate the active form (residues 67-406); made in house; host or cells: FreeStyle 293-F cells, transient expression of pcDNA3.1(+)/hREN
# T1 sequence (P00797 67-406): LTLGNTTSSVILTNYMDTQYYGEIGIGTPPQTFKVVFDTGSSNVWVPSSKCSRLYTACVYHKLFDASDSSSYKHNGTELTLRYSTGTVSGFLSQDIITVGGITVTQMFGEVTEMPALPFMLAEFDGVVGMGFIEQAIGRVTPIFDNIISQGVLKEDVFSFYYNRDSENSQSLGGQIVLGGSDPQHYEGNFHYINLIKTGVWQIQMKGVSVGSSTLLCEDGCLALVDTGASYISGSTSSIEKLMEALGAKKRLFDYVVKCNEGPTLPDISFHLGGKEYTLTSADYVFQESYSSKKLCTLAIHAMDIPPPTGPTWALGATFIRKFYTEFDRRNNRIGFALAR
# Experiment: In vitro enzymatic activity assay of renin inhibitors (fluorescence, QXL520/HiLyteFluo488 peptide substrate)
# Format: biochemical
# [1] = recombinant human renin 3 nM, 1 μM substrate, pre-incubated 10 minutes at 37° C., incubation one hour, pH 7.4, 5% DMSO, read-out: IC50 of Exemplified Compounds Against Renin
SMILES,IC50 [1],IC50
"O=C(c1[nH]c(=O)n([C@H]2CCCC[C@@H]2O)c1-c1ccccc1)N1CCNC[C@H]1Cc1ccccc1 [Example 126, 4-((R)-2-Benzylpiperazine-1-carbonyl)-1-((1S,2S)-2-hydroxycyclohexyl)-5-phenyl-1H-imidazol-2(3H)-one]",< 100 nM,
"Cc1cc(Cn2c(C(=O)N3CCNCC3)c(-c3ccccc3)n(-c3ccccc3)c2=O)no1 [Example 47, 1-((5-Methylisoxazol-3-yl)methyl)-3,4-diphenyl-5-(piperazine-1-carbonyl)-1H-imidazol-2(3H)-one]",> 1000 nM,
"O=C(c1c(-c2ccccc2)n(-c2ccccc2)c(=O)n1Cc1cccc(F)c1)N1CCNCC1 [Example 51, 1-(3-Fluorobenzyl)-3,4-diphenyl-5-(piperazine-1-carbonyl)-1H-imidazol-2(3H)-one]",100 to 500 nM,
"Cc1ccccc1-n1c(-c2ccccc2)c(C(=O)N2CCNCC2)n(CCNS(=O)(=O)c2ccccc2F)c1=O [Example 203, 2-Fluoro-N-(2-(2-oxo-4-phenyl-5-(piperazine-1-carbonyl)-3-o-tolyl-2,3-dihydro-1H-imidazol-1-yl)ethyl)benzenesulfonamide]",500 to 1000 nM,
"O=C(c1c(-c2ccccc2)n(C2CCCN(S(=O)(=O)c3ccccc3)C2)c(=O)n1Cc1ccccc1)N1CCNCC1 (stereo not shown) [Example 100, 1-Benzyl-4-phenyl-3-(1-(phenylsulfonyl)piperidin-3-yl)-5-(piperazine-1-carbonyl)-1H-imidazol-2(3H)-one]",500 to 1000 nM,
"Cc1ccccc1-n1c(-c2ccccc2)c(C(=O)N2CCNCC2)n(CCNC(=O)Oc2ccccc2)c1=O [Example 248, Phenyl 2-(2-oxo-4-phenyl-5-(piperazine-1-carbonyl)-3-o-tolyl-2,3-dihydro-1H-imidazol-1-yl)ethylcarbamate]",,> 1000 nM
"Cc1ccccc1-n1c(-c2ccccc2)c(C(=O)N2CCNCC2)n(CCNC(=O)NC(C)C)c1=O [Example 216, 1-Isopropyl-3-(2-(2-oxo-4-phenyl-5-(piperazine-1-carbonyl)-3-o-tolyl-2,3-dihydro-1H-imidazol-1-yl)ethyl)urea]",> 1000 nM,
"COc1cccc(Cn2c(C(=O)N3CCNCC3)c(-c3ccccc3)n(C3CCCN(C(C)=O)C3)c2=O)c1 (stereo not shown) [Example 92, 1-(1-Acetylpiperidin-3-yl)-3-(3-methoxybenzyl)-5-phenyl-4-(piperazine-1 carbonyl)-1H-imidazol-2(3H)-one]",> 1000 nM,
"O=C(c1c(-c2ccccc2)n([C@@H]2CCCC[C@H]2O)c(=O)n1Cc1ccccc1)N1CCNCC1 [Example 105, 1-Benzyl-3-((1R,2R)-2-hydroxycyclohexyl)-4-phenyl-5-(piperazine-1-carbonyl)-1H-imidazol-2(3H)-one]",> 1000 nM,
"O=C(c1[nH]c(=O)n(-c2ccccc2NS(=O)(=O)c2ccccc2)c1-c1ccccc1)N1CCNC[C@H]1Cc1ccccc1 [Example 125, (R)—N-(2-(4-(2-benzylpiperazine-1-carbonyl)-2-oxo-5-phenyl-2,3-dihydro-1H-imidazol-1-yl)phenyl)Benzenesulfonamide]",< 100 nM,
"O=C(c1[nH]c(=O)n(CC2(O)CCCCC2)c1-c1ccccc1)N1CCNC[C@H]1Cc1ccccc1 [Example 130, (R)-4-(2-Benzylpiperazine-1-carbonyl)-1-((1-hydroxycyclohexyl)methyl)-5-phenyl-1H-imidazol-2(3H)-one]",< 100 nM,
"CC1CN(C(=O)c2[nH]c(=O)n(C3CCCCC3)c2-c2ccccc2)CC(C)N1 (stereo not shown) [Example 40, 1-Cyclohexyl-4-(3,5-dimethylpiperazine-1-carbonyl)-5-phenyl-1H-imidazol-2(3H)-one]",> 1000 nM,
"CC(C)CC(=O)NCCCn1c(C(=O)N2CCNCC2)c(-c2ccccc2)n(C2CCCC[C@@H]2O)c1=O (stereo partly drawn) [Example 172, N-(3-(3-((2S)-2-Hydroxycyclohexyl)-2-oxo-4-phenyl-5-(piperazine-1-carbonyl)-2,3-dihydro-1H-imidazol-1-yl)propyl)-3-methylbutanamide]",> 1000 nM,
"O=C(c1[nH]c(=O)n(-c2ccccc2[N+](=O)[O-])c1-c1ccccc1)N1CCNC[C@H]1Cc1ccccc1 [Example 117, (R)-4-(2-Benzylpiperazine-1-carbonyl)-1-(2-nitrophenyl)-5-phenyl-1H-imidazol-2(3H)-one]",< 100 nM,
"COc1ccc(S(=O)(=O)NCCn2c(C(=O)N3CCNCC3)c(-c3ccccc3)n(-c3ccccc3C)c2=O)cc1 [Example 210, 4-Methoxy-N-(2-(2-oxo-4-phenyl-5-(piperazine-1-carbonyl)-3-o-tolyl-2,3-dihydro-1H-imidazol-1-yl)ethyl)benzenesulfonamide]",> 1000 nM,
"COCCOc1cccc(-n2c(-c3ccccc3)c(C(=O)N3CCNCC3)[nH]c2=O)c1 [Example 34, 1-(3-(2-Methoxyethoxy)phenyl)-5-phenyl-4-(piperazine-1-carbonyl)-1H-imidazol-2(3H)-one]",> 1000 nM,

SMILES,IC50 [1],IC50
"O=C(c1c(-c2ccccc2)n(-c2ccccc2)c(=O)n1Cc1ccccc1)N1CCNCC1 [Example 45, 1-Benzyl-3,4-diphenyl-5-(piperazine-1-carbonyl)-1H-imidazol-2(3H)-one]",100 to 500 nM,
"COc1ccc(C(=O)NCCCn2c(C(=O)N3CCNCC3)c(-c3ccccc3)n(-c3ccccc3C)c2=O)cc1 [Example 245, 4-Methoxy-N-(3-(2-oxo-4-phenyl-5-(piperazine-1-carbonyl)-3-o-tolyl-2,3-dihydro-1H-imidazol-1-yl)propyl)benzamide]",> 1000 nM,
"O=C(c1[nH]c(=O)n(-c2ccccn2)c1-c1ccccc1)N1CCNCC1 [Example 19, 5-Phenyl-4-(piperazine-1-carbonyl)-1-(pyridin-2-yl)-1H-imidazol-2(3H)-one]",> 1000 nM,
"COc1ccccc1NC(=O)NCCn1c(C(=O)N2CCNCC2)c(-c2ccccc2)n(-c2ccccc2C)c1=O [Example 214, 1-(2-Methoxyphenyl)-3-(2-(2-oxo-4-phenyl-5-(piperazine-1-carbonyl)-3-o-tolyl-2,3-dihydro-1H-imidazol-1-yl)ethyl)urea]",500 to 1000 nM,
"COc1cccc(S(=O)(=O)NCCn2c(C(=O)N3CCNCC3)c(-c3ccccc3)n(-c3ccccc3C)c2=O)c1 [Example 209, 3-Methoxy-N-(2-(2-oxo-4-phenyl-5-(piperazine-1-carbonyl)-3-o-tolyl-2,3-dihydro-1H-imidazol-1-yl)ethyl)benzenesulfonamide]",> 1000 nM,
"O=C(NCCn1c(C(=O)N2CCNCC2)c(-c2ccccc2)n(-c2cccc(N3CCOCC3)c2)c1=O)c1ccccc1 [Example 177, N-(2-(3-(3-Morpholinophenyl)-2-oxo-4-phenyl-5-(piperazine-1-carbonyl)-2,3-dihydro-1H-imidazol-1-yl)ethyl)benzamide]",500 to 1000 nM,
"COc1ccccc1-n1c(-c2ccccc2)c(C(=O)N2CCNCC2)n(CCNS(=O)(=O)c2ccccc2)c1=O [Example 158, N-(2-(3-(2-Methoxyphenyl)-2-oxo-4-phenyl-5-(piperazine-1-carbonyl)-2,3-dihydro-1H-imidazol-1-yl)ethyl)benzenesulfonamide]",> 1000 nM,
"Cc1ccccc1-n1c(-c2ccccc2)c(C(=O)N2CCNCC2)n(CCCNC(=O)Nc2ccccc2)c1=O [Example 223, 1-(3-(2-Oxo-4-phenyl-5-(piperazine-1-carbonyl)-3-o-tolyl-2,3-dihydro-1H-imidazol-1-yl)propyl)-3-phenylurea]",500 to 1000 nM,
"COc1ccccc1-n1c(-c2ccccc2)c(C(=O)N2CCNCC2)n(CCCNC(=O)c2ccccc2)c1=O [Example 159, N-(3-(3-(2-Methoxyphenyl)-2-oxo-4-phenyl-5-(piperazine-1-carbonyl)-2,3-dihydro-1H-imidazol-1-yl)propyl)benzamide]",> 1000 nM,
"Cc1ccccc1-n1c(-c2ccccc2)c(C(=O)N2CCNCC2)n(CCCNC(=O)Nc2ccccc2Cl)c1=O [Example 224, 1-(2-Chlorophenyl)-3-(3-(2-oxo-4-phenyl-5-(piperazine-1-carbonyl)-3-o-tolyl-2,3-dihydro-1H-imidazol-1-yl)propyl)urea]",100 to 500 nM,
"O=C(c1[nH]c(=O)n(-c2ccc3c(c2)NCCC3)c1-c1ccccc1)N1CCNC[C@H]1Cc1ccccc1 [Example 132, (R)-4-(2-Benzylpiperazine-1-carbonyl)-5-phenyl-1-(1,2,3,4-tetrahydroquinolin-7-yl)-1H-imidazol-2(3H)-one]",< 100 nM,
"O=C(c1c(-c2ccccc2)n(-c2ccccc2)c(=O)n1Cc1c[nH]cn1)N1CCNCC1 [Example 49, 1-((1H-Imidazol-4-yl)methyl)-3,4-diphenyl-5-(piperazine-1-carbonyl)-1H-imidazol-2(3H)-one]",> 1000 nM,
"Cc1ccccc1-n1c(-c2ccccc2)c(C(=O)N2CCNCC2)n(CCNC(=O)Nc2ccccc2Cl)c1=O [Example 212, 1-(2-Chlorophenyl)-3-(2-(2-oxo-4-phenyl-5-(piperazine-1-carbonyl)-3-o-tolyl-2,3-dihydro-1H-imidazol-1-yl)ethyl)urea]",500 to 1000 nM,
"O=C(c1c(-c2ccccc2)n(-c2cccc(N3CCOCC3)c2)c(=O)n1CC1CCCCC1)N1CCNCC1 [Example 189, 1-(Cyclohexylmethyl)-3-(3-morpholinophenyl)-4-phenyl-5-(piperazine-1-carbonyl)-1H-imidazol-2(3H)-one]",> 1000 nM,
"COCCCOc1cccc(-n2c(-c3ccccc3)c(C(=O)N3CCNCC3)n(Cc3cccc(Oc4ccccc4)c3)c2=O)c1 [Example 75, 1-(3-(3-Methoxypropoxy)phenyl)-3-(3-phenoxybenzyl)-5-phenyl-4-(piperazine-1-carbonyl)-1H-imidazol-2(3H)-one]",< 100 nM,
